Reference: DBAASP
Converted amounts (≈) assume the structure as drawn. Values belong to the compound of their own block, whether it stands above or below them.

Key:
Assay in all cases: ≥ marks a high value that may be exact or a test limit, other limits are often not marked, values filed in µg/mL are converted to µM
[1] = test system: Vibrio ordalii KCCM 41669
[2] = test system: Aeromonas salmonicida RFAS1
[3] = test system: Vibrio alginolyticus KCCM 2928
[4] = test system: Edwardsiella tarda FP4130
[5] = test system: Streptococcus iniae FP5228
[6] = test system: Vibrio harveyi ATCC 14126
[7] = test system: Pseudomonas aeruginosa ATCC 27853
[8] = test system: Salmonella enterica subsp. enterica serovar Typhimurium ATCC 13311
[9] = test system: Bacillus cereus ATCC 11778
[10] = test system: Staphylococcus aureus ATCC 43300
[11] = test system: Enterococcus faecalis ATCC 29212
Vibrio cholerae O1 Inaba = test system: Vibrio cholerae O1 Inaba
[12] = test system: Escherichia coli ATCC 25922
Escherichia coli O157 = test system: Escherichia coli O157
[13] = test system: Shigella sonnei ATCC 11060
[14] = test system: Staphylococcus epidermidis ATCC 12228
[15] = test system: Staphylococcus aureus ATCC 25923
[16] = test system: Staphylococcus aureus 5118
[17] = test system: Staphylococcus aureus 3968
[18] = test system: Staphylococcus aureus ATCC 9144
[19] = test system: Staphylococcus aureus E4049
[20] = test system: Pseudomonas aeruginosa 4891
[21] = test system: Salmonella typhimurium KCTC 1926
[22] = test system: Candida albicans KCTC 7270
[23] = test system: Staphylococcus aureus CCARM 3518
[24] = test system: Escherichia coli CCARM 1229
[25] = test system: Trichosporon beigelii KCTC 7707
[26] = test system: Listeria monocytogenes KCTC 3710
[27] = test system: Pseudomonas aeruginosa 4007
[28] = test system: Escherichia coli CCARM 1238
[29] = test system: Staphylococcus aureus CCARM 3090
[30] = test system: Bacillus subtilis KCTC 1998
[31] = test system: Saccharomyces cerevisiae SZMC 0644
[32] = test system: Candida parapsilosis CBS 604
[33] = test system: Candida albicans ATCC 10231
Candida krusei CBS 573 = test system: Candida krusei CBS 573
[34] = test system: Staphylococcus aureus ATCC 6538P
[35] = test system: Escherichia coli K-12 594
[36] = test system: Staphylococcus aureus SR1550
[37] = test system: Acinetobacter baumannii ATCC 19606
[38] = test system: Pseudomonas aeruginosa ATCC 47085
[39] = test system: Klebsiella pneumoniae ATCC 13883
[40] = test system: Staphylococcus aureus LAC

SMILES: CC[C@H](C)[C@H](NC(=O)[C@H](CC(N)=O)NC(=O)[C@H](CCCCN)NC(=O)[C@H](Cc1c[nH]c2ccccc12)NC(=O)CNC(=O)[C@H](CCC(=O)O)NC(=O)[C@H](CCCCN)NC(=O)[C@H](CC(C)C)NC(=O)[C@H](CCC(=O)O)NC(=O)[C@H](CCC(N)=O)NC(=O)[C@H](Cc1ccccc1)NC(=O)[C@@H](N)Cc1ccccc1)C(=O)N[C@@H](CCCCN)C(=O)N[C@@H](CCCCN)C(=O)N[C@@H](C)C(=O)O [FFQELKEGWKNIKKA]
MIC [1]: 2 µM (≈ 3.73 µg/mL)
MIC [2]: 7.8 µM (≈ 14.6 µg/mL)
MIC [3]: 7.8 µM (≈ 14.6 µg/mL)
MIC [4]: ≥ 62.5 µM
MIC [5]: 15.6 µM (≈ 29.1 µg/mL)
MIC [6]: ≥ 125 µM

SMILES: CC(C)C[C@H](NC(=O)CNC(=O)[C@H](CCCN=C(N)N)NC(=O)[C@H](CS)NC(=O)[C@H](CC(=O)O)NC(=O)CNC(=O)CNC(=O)[C@H](CO)NC(=O)[C@@H](N)Cc1ccccc1)C(=O)N[C@@H](CCCN=C(N)N)C(=O)N[C@@H](CCCN=C(N)N)C(=O)N[C@@H](CCCN=C(N)N)C(=O)N[C@@H](CS)C(=O)N[C@@H](Cc1ccccc1)C(=O)N[C@@H](CS)C(=O)N[C@H](C(=O)N[C@@H](CCCN=C(N)N)C(N)=O)[C@@H](C)O [FSGGDCRGLRRRCFCTR]
MIC [7]: > 251 µM
MIC [8]: 31.4 µM (≈ 62.5 µg/mL)
MIC [9]: ≥ 251 µM
MIC [10]: > 251 µM
MIC [11]: 251 µM (≈ 500 µg/mL)
MIC (Vibrio cholerae O1 Inaba): ≥ 126 µM
MIC [12]: > 251 µM
MIC (Escherichia coli O157): ≥ 229 µM
MIC [13]: ≥ 126 µM
MIC [14]: 15.7 µM (≈ 31.2 µg/mL)
MIC [15]: > 251 µM

SMILES: CSCC[C@H](NC(=O)[C@H](C)NC(=O)[C@H](CC(C)C)NC(=O)[C@@H](N)CCCCN)C(=O)N[C@@H](CO)C(=O)N[C@@H](CCSC)C(=O)N[C@@H](CO)C(=O)N[C@@H](Cc1ccccc1)C(=O)N[C@@H](CC(N)=O)C(=O)N[C@@H](Cc1ccccc1)C(=O)N[C@H](C(=O)N[C@@H](Cc1ccccc1)C(=O)N[C@@H](Cc1ccc(O)cc1)C(=O)N[C@@H](Cc1ccccc1)C(=O)N[C@@H](CCSC)C(=O)N[C@H](C(=O)N[C@@H](CC(N)=O)C(=O)N[C@@H](Cc1ccccc1)C(=O)N[C@@H](CC(=O)O)C(=O)N[C@@H](CC(=O)O)C(=O)O)C(C)C)C(C)C [KLAMSMSFNFVFYFMVNFDD]
MIC [16]: ≥ 125 µM
MIC [17]: ≥ 250 µM
MIC [18]: ≥ 125 µM
MIC [19]: 15.5 µM (≈ 38 µg/mL)

SMILES: CC[C@H](C)[C@H](NC(=O)[C@H](CCCCN)NC(=O)[C@H](CCCCN)NC(=O)[C@@H](NC(=O)[C@H](C)NC(=O)[C@H](CCC(=O)O)NC(=O)[C@H](Cc1cnc[nH]1)NC(=O)[C@@H](NC(=O)CNC(=O)[C@H](CCC(N)=O)NC(=O)[C@H](Cc1ccccc1)NC(=O)[C@@H](NC(=O)[C@H](CCCCN)NC(=O)[C@H](CCCCN)NC(=O)[C@H](CC(C)C)NC(=O)[C@H](C)NC(=O)[C@H](CC(N)=O)NC(=O)[C@@H](N)CC(C)C)C(C)C)[C@@H](C)CC)[C@@H](C)CC)C(N)=O [LNALKKVFQGIHEAIKKI]
MIC [7]: 4 µM (≈ 8.2 µg/mL)
MIC [20]: 8 µM (≈ 16.4 µg/mL)
MIC [21]: 4 µM (≈ 8.2 µg/mL)
MIC [22]: 16 µM (≈ 32.8 µg/mL)
MIC [23]: 4 µM (≈ 8.2 µg/mL)
MIC [24]: 2 µM (≈ 4.1 µg/mL)
MIC [12]: 2 µM (≈ 4.1 µg/mL)
MIC [25]: 16 µM (≈ 32.8 µg/mL)
MIC [26]: 8 µM (≈ 16.4 µg/mL)
MIC [27]: 4 µM (≈ 8.2 µg/mL)
MIC [28]: 2 µM (≈ 4.1 µg/mL)
MIC [29]: 4 µM (≈ 8.2 µg/mL)
MIC [30]: 4 µM (≈ 8.2 µg/mL)
MIC [15]: 4 µM (≈ 8.2 µg/mL)

SMILES: NCCCC[C@@H]1NC(=O)[C@H](CCCCN)NC(=O)[C@H](Cc2cnc[nH]2)NC(=O)[C@H](CCCCN)NC(=O)[C@@H](NC(=O)[C@H](CC(N)=O)NC(=O)[C@@H](N)CC(N)=O)CSSC[C@@H](C(=O)O)NC(=O)CNC(=O)[C@H](CO)NC(=O)CNC1=O [NNCKHKKGSGC]
MIC [31]: ≥ 42.5 µM
MIC [32]: ≥ 42.5 µM
MIC [33]: 42.5 µM (≈ 49.9 µg/mL)
MIC (Candida krusei CBS 573): ≥ 42.5 µM

Now from value to compound:

MIC [34]: 1.58 µM (≈ 2 µg/mL)
MIC [35]: 15.8 µM (≈ 20 µg/mL)
MIC [36]: 27.7 µM (≈ 35 µg/mL)
SMILES: CC(C)C[C@H](NC(=O)[C@H](CCCN=C(N)N)NC(=O)[C@H](CC(C)C)NC(=O)[C@H](CC(C)C)NC(=O)[C@H](CC(C)C)NC(=O)[C@H](CC(C)C)NC(=O)[C@H](CCCCN)NC(=O)[C@H](CC(C)C)NC(=O)[C@@H](N)CCCN=C(N)N)C(=O)N[C@@H](CCCCN)C(N)=O [RLKLLLLRLK]

MIC [37]: > 100 µM
MIC [38]: ≥ 100 µM
MIC [39]: 2 µM (≈ 4.78 µg/mL)
MIC [12]: 2.6 µM (≈ 6.22 µg/mL)
SMILES: CC(=O)N[C@@H](CCCN=C(N)N)C(=O)N1CCC[C@H]1C(=O)N[C@@H](CC(=O)O)C(=O)N[C@@H](CCCCN)C(=O)N1CCC[C@H]1C(=O)N[C@@H](CCCN=C(N)N)C(=O)N1CCC[C@H]1C(=O)N[C@@H](Cc1ccc(O)cc1)C(=O)N[C@@H](CC(C)C)C(=O)N1CCC[C@H]1C(=O)N[C@@H](CCCN=C(N)N)C(=O)N1CCC[C@H]1C(=O)N[C@@H](CCCN=C(N)N)C(=O)N1CCC[C@H]1C(=O)N1CCC[C@H]1C(=O)N[C@@H](CCCN=C(N)N)C(=O)N1CCC[C@H]1C(=O)N[C@H](C(=O)N[C@@H](CCCN=C(N)N)C(N)=O)C(C)C [RPDKPRPYLPRPRPPRPVR]

MIC [12]: 20.3 µM (≈ 32 µg/mL)
MIC [40]: 10.2 µM (≈ 16 µg/mL)
SMILES: NC(N)=NCCC[C@H](NC(=O)[C@H](CCCN=C(N)N)NC(=O)[C@H](CCCN=C(N)N)NC(=O)[C@@H](N)CCCN=C(N)N)C(=O)N[C@@H](Cc1c[nH]c2ccccc12)C(=O)N[C@@H](Cc1c[nH]c2ccccc12)C(=O)N[C@@H](Cc1c[nH]c2ccccc12)C(=O)N[C@@H](Cc1c[nH]c2ccccc12)C(=O)N[C@@H](Cc1c[nH]c2ccccc12)C(=O)O [RRRRWWWWW]
